Tested on: E. coli TOP10
Experiment: Suicide expression system (SES) growth inhibition
Type: cell-based
Conditions: Table 4; variants of SEQ ID NO:10, re-tested in the Bioscreen C

Question: How did the “Growth inhibition (%)” value turn out when “180 (RRRPLRPPIRPPIRPPIRPPFRPPFRP; Synthetic antimicrobial peptide) [compound 180]” was run?
Answer: The value was 76%.

Question: With “181 (RRRPIRPPIRPPFRPPFRPPFRPPFRP; Synthetic antimicrobial peptide) [compound 181]” as the substance, how does the “Growth inhibition (%)” value read?
Answer: Its value is 83%.

Question: “182 (RRRPFRPPIRPPFRPPIRPPVRPPFRP; Synthetic antimicrobial peptide) [compound 182]” was tested. Which “Growth inhibition (%)” value did it give?
Answer: Its value is 83%.

Question: “183 (RRRPFRPPVRPPLRPPFRPPFRPPFRP; Synthetic antimicrobial peptide) [compound 183]” was tested. Which “Growth inhibition (%)” value did it give?
Answer: Its value is 80%.

Question: How did the “Growth inhibition (%)” value turn out when “184 (RRRPIRPPIRPPFRPPLRPPFRPPFRP; Synthetic antimicrobial peptide) [compound 184]” was run?
Answer: Its value is 78%.

Question: For “185 (RRRPLRPPIRPPIRPPFRPPFRPPFRP; Synthetic antimicrobial peptide) [compound 185]”, which “Growth inhibition (%)” value is on record?
Answer: Its value is 79%.

Question: For “186 (RRRPIRPPIRPPIRPPFRPPFRPPFRP; Synthetic antimicrobial peptide) [compound 186]”, which “Growth inhibition (%)” value is on record?
Answer: The value was 77%.

Question: “187 (RRRPIRPPFRPPFRPPVRPPFRPPFRP; Synthetic antimicrobial peptide) [compound 187]” was tested. Which “Growth inhibition (%)” value did it give?
Answer: The value was 85%.

Question: How did the “Growth inhibition (%)” value turn out when “188 (RRRPFRPPFRPPIRPPVRPPVRPPFRP; Synthetic antimicrobial peptide) [compound 188]” was run?
Answer: The value was 83%.

Question: With “189 (RRRPFRPPFRPPIRPPVRPPIRPPFRP; Synthetic antimicrobial peptide) [compound 189]” as the substance, how does the “Growth inhibition (%)” value read?
Answer: Its value is 79%.

Question: Which “Growth inhibition (%)” value does the source give for “190 (RRRPFRPPIRPPFRPPIRPPFRPPFRP; Synthetic antimicrobial peptide) [compound 190]” here?
Answer: Its value is 83%.

Question: With “191 (RRRPFRPPFRPPIRPPFRPPVRPPFRP; Synthetic antimicrobial peptide) [compound 191]” as the substance, how does the “Growth inhibition (%)” value read?
Answer: Its value is 77%.

Question: For “192 (RRRPFRPPFRPPFRPPVRPPVRPPFRP; Synthetic antimicrobial peptide) [compound 192]”, which “Growth inhibition (%)” value is on record?
Answer: Its value is 92%.

Question: With “193 (RRRPFRPPIRPPFRPPIRPPFRPPFRP; Synthetic antimicrobial peptide) [compound 193]” as the substance, how does the “Growth inhibition (%)” value read?
Answer: Its value is 81%.

Question: How did the “Growth inhibition (%)” value turn out when “194 (RRRPLRPPFRPPFRPPIRPPFRPPFRP; Synthetic antimicrobial peptide) [compound 194]” was run?
Answer: Its value is 81%.

Question: With “195 (RRRPFRPPIRPPFRPPVRPPVRPPVRP; Synthetic antimicrobial peptide) [compound 195]” as the substance, how does the “Growth inhibition (%)” value read?
Answer: The value was 76%.

Question: How did the “Growth inhibition (%)” value turn out when “196 (RRRPFRPPLRPPIRPPIRPPFRPPFRP; Synthetic antimicrobial peptide) [compound 196]” was run?
Answer: Its value is 77%.

Question: With “197 (RRRPFRPPFRPPFRPPFRPPLRPPFRP; Synthetic antimicrobial peptide) [compound 197]” as the substance, how does the “Growth inhibition (%)” value read?
Answer: The value was 86%.

Question: Which “Growth inhibition (%)” value does the source give for “198 (RRRPFRPPFRPPFRPPFRPPFRPPFRP; Synthetic antimicrobial peptide) [compound 198]” here?
Answer: The value was 91%.

Question: Which “Growth inhibition (%)” value does the source give for “199 (RRRPLRPPIRPPFRPPVRPPFRPPFRP; Synthetic antimicrobial peptide) [compound 199]” here?
Answer: Its value is 80%.

Question: “200 (RRRPFRPPFRPPLRPPFRPPVRPPFRP; Synthetic antimicrobial peptide) [compound 200]” was tested. Which “Growth inhibition (%)” value did it give?
Answer: The value was 87%.

Question: With “201 (RRRPFRPPIRPPIRPPFRPPIRPPFRP; Synthetic antimicrobial peptide) [compound 201]” as the substance, how does the “Growth inhibition (%)” value read?
Answer: Its value is 78%.

Question: Which “Growth inhibition (%)” value does the source give for “202 (RRRPFRPPFRPPFRPPLRPPFRPPFRP; Synthetic antimicrobial peptide) [compound 202]” here?
Answer: Its value is 84%.

Question: For “203 (RRRPFRPPIRPPFRPPIRPPFRPPFRP; Synthetic antimicrobial peptide) [compound 203]”, which “Growth inhibition (%)” value is on record?
Answer: The value was 79%.

Question: How did the “Growth inhibition (%)” value turn out when “204 (RRRPLRPPLRPPFRPPIRPPFRPPFRP; Synthetic antimicrobial peptide) [compound 204]” was run?
Answer: The value was 76%.

Question: With “205 (RRRPFRPPFRPPIRPPVRPPFRPPFRP; Synthetic antimicrobial peptide) [compound 205]” as the substance, how does the “Growth inhibition (%)” value read?
Answer: Its value is 77%.

Question: For “206 (RRRPFRPPFRPPFRPPFRPPFRPPFRP; Synthetic antimicrobial peptide) [compound 206]”, which “Growth inhibition (%)” value is on record?
Answer: Its value is 77%.

Same assay, conditions: Table 5; mixed-motif library, re-tested in the Bioscreen C

Question: How did the “Growth inhibition (%)” value turn out when “207 (RRRPPRFPRPFPIRPPPRFPRPIPFRP; Synthetic antimicrobial peptide) [compound 207]” was run?
Answer: Its value is 93%.

Question: How did the “Growth inhibition (%)” value turn out when “208 (RRRPPRFPRPFPVRPPPRFPRPIPVRP; Synthetic antimicrobial peptide) [compound 208]” was run?
Answer: The value was 95%.

Question: “209 (RRRPPRIPRPFPIRPPPRFPRPIPFRP; Synthetic antimicrobial peptide) [compound 209]” was tested. Which “Growth inhibition (%)” value did it give?
Answer: The value was 78%.

Question: How did the “Growth inhibition (%)” value turn out when “210 (RRRPPRIPRPIPVRPPPRIPRPIPFRP; Synthetic antimicrobial peptide) [compound 210]” was run?
Answer: The value was 94%.

Question: How did the “Growth inhibition (%)” value turn out when “211 (RRRPPRLPRPFPFRPPPRFPRPIPFRP; Synthetic antimicrobial peptide) [compound 211]” was run?
Answer: Its value is 96%.

Question: How did the “Growth inhibition (%)” value turn out when “212 (RRRPPRLPRPFPFRPPPRFPRPVPIRP; Synthetic antimicrobial peptide) [compound 212]” was run?
Answer: Its value is 96%.

Question: How did the “Growth inhibition (%)” value turn out when “213 (RRRPPRLPRPFPFRPPPRLPRPFPIRP; Synthetic antimicrobial peptide) [compound 213]” was run?
Answer: Its value is 94%.

Question: How did the “Growth inhibition (%)” value turn out when “214 (RRRPPRLPRPFPFRPPPRLPRPIPLRP; Synthetic antimicrobial peptide) [compound 214]” was run?
Answer: Its value is 95%.

Question: “215 (RRRPPRLPRPFPFRPPPRPRPFPFRP; Synthetic antimicrobial peptide) [compound 215]” was tested. Which “Growth inhibition (%)” value did it give?
Answer: Its value is 94%.

Question: For “216 (RRRPPRLPRPFPFRPPPRPRPLPVRP; Synthetic antimicrobial peptide) [compound 216]”, which “Growth inhibition (%)” value is on record?
Answer: Its value is 95%.

Question: “217 (RRRPPRLPRPFPFRPPPRVPRPFPLRP; Synthetic antimicrobial peptide) [compound 217]” was tested. Which “Growth inhibition (%)” value did it give?
Answer: The value was 93%.

Question: With “218 (RRRPPRLPRPFPFRPPPRVPRPIPVRP; Synthetic antimicrobial peptide) [compound 218]” as the substance, how does the “Growth inhibition (%)” value read?
Answer: Its value is 93%.

Question: For “219 (RRRPPRLPRPFPFRPPPRVPRPLPFRP; Synthetic antimicrobial peptide) [compound 219]”, which “Growth inhibition (%)” value is on record?
Answer: Its value is 93%.

Question: For “220 (RRRPPRLPRPFPIRPPPRFPRPFPVRP; Synthetic antimicrobial peptide) [compound 220]”, which “Growth inhibition (%)” value is on record?
Answer: Its value is 90%.

Question: Which “Growth inhibition (%)” value does the source give for “221 (RRRPPRLPRPFPIRPPPRFPRPLPFRP; Synthetic antimicrobial peptide) [compound 221]” here?
Answer: Its value is 93%.

Question: Which “Growth inhibition (%)” value does the source give for “222 (RRRPPRLPRPFPIRPPPRFPRPVPLRP; Synthetic antimicrobial peptide) [compound 222]” here?
Answer: The value was 93%.

Question: “223 (RRRPPRLPRPFPIRPPPRLPRPLPFRP; Synthetic antimicrobial peptide) [compound 223]” was tested. Which “Growth inhibition (%)” value did it give?
Answer: Its value is 90%.

Question: How did the “Growth inhibition (%)” value turn out when “224 (RRRPPRLPRPFPIRPPPRVPRPFPVRP; Synthetic antimicrobial peptide) [compound 224]” was run?
Answer: Its value is 93%.

Question: Which “Growth inhibition (%)” value does the source give for “225 (RRRPPRLPRPFPIRPPPRVPRPIPIRP; Synthetic antimicrobial peptide) [compound 225]” here?
Answer: The value was 97%.

Question: With “226 (RRRPPRLPRPFPIRPPPRVPRPIPVRP; Synthetic antimicrobial peptide) [compound 226]” as the substance, how does the “Growth inhibition (%)” value read?
Answer: Its value is 94%.

Question: With “227 (RRRPPRLPRPFPIRPPPRVPRPVPIRP; Synthetic antimicrobial peptide) [compound 227]” as the substance, how does the “Growth inhibition (%)” value read?
Answer: The value was 94%.

Question: Which “Growth inhibition (%)” value does the source give for “228 (RRRPPRLPRPFPLRPPPRFPRPFPIRP; Synthetic antimicrobial peptide) [compound 228]” here?
Answer: The value was 96%.

Question: Which “Growth inhibition (%)” value does the source give for “229 (RRRPPRLPRPFPLRPPPRFPRPFPLRP; Synthetic antimicrobial peptide) [compound 229]” here?
Answer: Its value is 95%.

Question: With “230 (RRRPPRLPRPFPLRPPPRFPRPLPLRP; Synthetic antimicrobial peptide) [compound 230]” as the substance, how does the “Growth inhibition (%)” value read?
Answer: The value was 94%.

Question: “231 (RRRPPRLPRPFPLRPPPRLPRPFPFRP; Synthetic antimicrobial peptide) [compound 231]” was tested. Which “Growth inhibition (%)” value did it give?
Answer: Its value is 98%.

Question: Which “Growth inhibition (%)” value does the source give for “232 (RRRPPRLPRPFPLRPPPRLPRPIPVRP; Synthetic antimicrobial peptide) [compound 232]” here?
Answer: The value was 92%.

Question: With “233 (RRRPPRLPRPFPLRPPPRLPRPLPVRP; Synthetic antimicrobial peptide) [compound 233]” as the substance, how does the “Growth inhibition (%)” value read?
Answer: Its value is 91%.

Question: With “234 (RRRPPRLPRPFPLRPPPRVPRPLPIRP; Synthetic antimicrobial peptide) [compound 234]” as the substance, how does the “Growth inhibition (%)” value read?
Answer: Its value is 93%.

Question: “235 (RRRPPRLPRPFPLRPPPRVPRPVPFRP; Synthetic antimicrobial peptide) [compound 235]” was tested. Which “Growth inhibition (%)” value did it give?
Answer: The value was 94%.

Question: With “236 (RRRPPRLPRPFPLRPPPRVPRPVPFRP; Synthetic antimicrobial peptide) [compound 236]” as the substance, how does the “Growth inhibition (%)” value read?
Answer: Its value is 91%.

Question: For “237 (RRRPPRLPRPFPLRPPPRVPRPVPVRP; Synthetic antimicrobial peptide) [compound 237]”, which “Growth inhibition (%)” value is on record?
Answer: Its value is 96%.

Question: For “238 (RRRPPRLPRPFPVRPPPRFPRPFPIRP; Synthetic antimicrobial peptide) [compound 238]”, which “Growth inhibition (%)” value is on record?
Answer: The value was 95%.

Question: “239 (RRRPPRLPRPFPVRPPPRFPRPFPLRP; Synthetic antimicrobial peptide) [compound 239]” was tested. Which “Growth inhibition (%)” value did it give?
Answer: Its value is 99%.

Question: With “240 (RRRPPRLPRPFPVRPPPRFPRPVPFRP; Synthetic antimicrobial peptide) [compound 240]” as the substance, how does the “Growth inhibition (%)” value read?
Answer: The value was 91%.

Question: With “241 (RRRPPRLPRPFPVRPPPRIPRPIPFRP; Synthetic antimicrobial peptide) [compound 241]” as the substance, how does the “Growth inhibition (%)” value read?
Answer: The value was 96%.

Question: For “242 (RRRPPRLPRPFPVRPPPRLPRPVPFRP; Synthetic antimicrobial peptide) [compound 242]”, which “Growth inhibition (%)” value is on record?
Answer: Its value is 90%.

Question: “243 (RRRPPRLPRPFPVRPPPRLPRPVPFRP; Synthetic antimicrobial peptide) [compound 243]” was tested. Which “Growth inhibition (%)” value did it give?
Answer: The value was 91%.

Question: How did the “Growth inhibition (%)” value turn out when “244 (RRRPPRLPRPFPVRPPPRLPRPVPFRP; Synthetic antimicrobial peptide) [compound 244]” was run?
Answer: Its value is 90%.
